biological target: Dipeptidyl peptidase 4 (Homo sapiens, UniProt P27487); experiment: Inhibition of DPP4
Sequence (P27487 whole entry): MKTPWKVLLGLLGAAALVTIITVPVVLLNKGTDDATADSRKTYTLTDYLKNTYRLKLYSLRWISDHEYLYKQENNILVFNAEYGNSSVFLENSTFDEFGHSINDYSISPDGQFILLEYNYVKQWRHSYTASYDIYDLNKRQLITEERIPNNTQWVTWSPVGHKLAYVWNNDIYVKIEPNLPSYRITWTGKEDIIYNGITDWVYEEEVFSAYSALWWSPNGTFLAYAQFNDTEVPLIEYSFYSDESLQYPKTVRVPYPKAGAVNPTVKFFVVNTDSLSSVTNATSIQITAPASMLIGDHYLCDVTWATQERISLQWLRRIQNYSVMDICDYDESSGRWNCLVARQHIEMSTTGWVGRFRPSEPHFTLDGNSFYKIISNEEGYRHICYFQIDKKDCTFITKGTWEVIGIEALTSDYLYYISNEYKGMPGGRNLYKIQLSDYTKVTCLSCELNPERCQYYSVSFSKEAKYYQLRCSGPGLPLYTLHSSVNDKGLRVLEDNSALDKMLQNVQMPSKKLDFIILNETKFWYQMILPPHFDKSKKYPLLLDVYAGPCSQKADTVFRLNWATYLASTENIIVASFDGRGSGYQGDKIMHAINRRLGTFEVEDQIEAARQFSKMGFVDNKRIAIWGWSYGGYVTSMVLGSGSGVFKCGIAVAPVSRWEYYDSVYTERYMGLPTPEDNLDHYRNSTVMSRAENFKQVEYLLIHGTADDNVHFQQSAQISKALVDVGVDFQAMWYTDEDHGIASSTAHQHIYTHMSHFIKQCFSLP

Compound | IC50 [µM]
N[C@@H](CC(=O)N1CCn2cc(C(F)(F)F)nc2C1c1ccc(F)cc1)Cc1ccc(F)c(F)c1 (stereo partly specified) | 1.4
CSc1cc(F)c(C[C@@H](N)CC(=O)N2CCn3c(nnc3C(F)(F)F)C2)cc1F | 0.78
N[C@@H](CC(=O)N1CCn2nccc21)Cc1cc(F)ccc1F | 1.32
N[C@@H](CC(=O)N1CCC[C@H]1C(=O)NCc1ccc(C(F)(F)F)cc1)Cc1ccccc1F | 0.731
N[C@@H](CC(=O)N1CCN(c2ccc(Cl)cc2)CC1)Cc1ccccc1F | 1.25
C=CCC(C(=O)N1CCn2c(nnc2C(F)(F)F)C1)[C@H](N)Cc1cc(F)c(F)cc1F (stereo partly specified) | 2
O=C([C@@H]1Cc2ccc(-c3cccc(-c4nnn[nH]4)c3)cc2CN1)N1CC[C@H](F)C1 | 0.31
C=COCC(=O)N1CCN(C(=O)C[C@H](N)Cc2ccccc2F)CC1 | 2.21
N[C@H](C(=O)N1CCC(F)(F)C1)[C@@H]1CCN(S(=O)(=O)c2ccc(OC(F)(F)F)cc2)C1 | 0.995
CC(C)[C@H](Oc1ccc(CNC(=O)[C@@H]2CCCN2C(=O)C[C@H](N)Cc2cc(F)c(F)c(F)c2F)cc1)C(=O)O | 0.008
COc1cc(CNC(=O)[C@@H]2CCCN2C(=O)C[C@H](N)Cc2ccccc2F)ccc1O | 0.864
